{"source": "patent US20080124366A1", "about": "“Methods and Compositions for Treating Tumors” (priority 2006, published 2008)", "molecules": {"B1": {"name": "INF-gamma: interferon-gamma in which cancer stem cells were incubated (protein, UniProt P01579 24-161, looked up)", "Interferon gamma": "QDPYVKEAENLKKYFNAGHSDVADNGTLFLGILKNWKEESDRKIMQSQIVSFYFKLFKNFKDDQSIQKSVETIKEDMNVKFFNSNKKKRDDFEKLTNYSVTDLNVQRKAIHELIQVMAELSPAAKTGKRKRSQMLFRG"}}, "key": {"[1]": {"tested_on": "cervical lymph node T cells and DCs", "assay": "Flow cytometry of draining cervical lymph nodes after s.c. vaccination", "assay_type": "in vivo, C57BL/6 mice", "details": "vs lysate or normal", "protocol": "Flow cytometry. Normal B6 mice were vaccinated two times, one week apart with CpG/lysate, CpG, lysate, or were not vaccinated as the controls (n=4/group). Six days after the last vaccination, the left and right cervical lymph nodes of each mouse were harvested, counted for LN cell numbers, and analyzed by flow cytometry with various monoclonal antibodies (1 μg/10^6 cells) including FITC-anti-CD3, PE-anti-CD8, APC-anti-CD4, FITC-anti-CD1 1c, PE-anti-CCR7, and APC-anti-CD86 (eBioscience, San Diego, Calif.).\nThe ability of CpG ODN to activate and mature DCs to elicit T cell-mediated responses has been established. An experiment was conducted to characterize the effects of CpG/lysate vaccination on DCs and T cells in the draining lymph nodes. Normal B6 mice were vaccinated two times, one week apart, by subcutaneous (s.c.) injection with CpG ODN, tumor lysate, or CpG/lysate (n=4/group). Six days after the second vaccination, the draining cervical lymph nodes of each mouse were harvested, counted for total cell number, and analyzed by flow cytometry."}, "GL261 mouse glioma model": {"tested_on": "GL261 mouse glioma model", "assay": "Intratumoral CpG ODN administration in GL261 mouse glioma model", "assay_type": "in vivo", "details": "weakly immunogenic GL261 / GL261-Luc model"}, "[2]": {"tested_on": "intracranial GL261-Luc glioma", "assay": "s.c. vaccination of mice bearing intracranial GL261-Luc glioma, bioluminescent imaging and survival (Example 5)", "assay_type": "in vivo, C57BL/6 mice", "details": "s.c. days 4, 11, 18", "protocol": "Glioma model and in vivo imaging. Six to seven week old female C57BL/6 mice were purchased from Jackson Laboratory and maintained in a specific pathogen free (SPF) facility according to the guidelines of the University of Minnesota Animal Care and Use Committee (IACUC). For intracranial tumor inoculations, animals were deeply anesthetized with a ketamine/xylazine cocktail solution (53.7 mg/ml ketamine, 9.26 mg/ml xylazine) delivered at 1 ml/kg. 10,000 GL261-Luc cells in 1 μl of PBS were implanted stereotactically into the right striatum; coordinates were 2.2 mm lateral, and 0.5 mm posterior of bregma, and 3 mm ventral from the cortical surface of the brain. For imaging mice were deeply anesthetized by i.p. injection with avertin (225 mg/kg) and injected with 100 μl of luciferin (substrate for luciferase enzyme; 28.5 mg/ml, Xenogen®, Hopkinton, Mass.). Mice were imaged five minutes after luciferin injection using the Ivis 50 system (Xenogen®). […] Luciferase activity was analyzed using living image software (version 2.5; Xenogen®) according to the manufacturer's instructions. […]\nStatistical analysis. […] Differences in animal survival between treatment groups were evaluated by log-rank statistical analysis with Sigmastat software (Systat Software, Inc. San Jose, Calif.); only P values <0.05 were considered significant."}, "[3]": {"tested_on": "Human brain tumor stem cells", "assay": "Incubation of human brain tumor stem cells in INF-gamma", "assay_type": "cell-based"}}, "note": "Entries after “also recorded” stand apart in the source; their conditions may differ."}
{"molecule": "5′-TCGTCGTTTTGTCGTTTTGTCGTT-3′ [CpG ODN]", "values": [{"measurement": "number of activated (CD11c+CD86+/CCR7+) DCs in draining lymph nodes", "setting": "[1]", "result": "significant increase"}, {"measurement": "efficacy of intratumoral administration", "setting": "GL261 mouse glioma model", "result": "not effective; also recorded: failed to cause sustained tumor regression"}, {"measurement": "effect on tumor growth or survival", "setting": "[2]", "result": "no effect"}]}
{"molecule": "B1", "values": [{"measurement": "immunogenicity of cancer stem cells after incubation", "setting": "[3]", "result": "restores their immunogenecity"}]}
